The target of one data set is PRKCB1 (PKC beta I) (Homo sapiens, UniProt P05771). In words: SelectScreen Z'LYTE kinase profiling. It counts as biochemical. Conditions: ATP at apparent KM.
Data set [1] in a line: Phase I metabolic stability assay. The following applies: human, liver microsomes.
Description: For this purpose, we used a microsomal stability assay that is a good predictor for phase I metabolic stability.[50]
Metabolic stability under oxidative conditions was determined by LCMS-based measuring of
degradation of compounds at 3 µM in human and murine liver microsomes over 60 minutes at 37 °C
Calculating the compound half-life t1/2, the in vitro intrinsic clearance CLint is
The target in the next data set is FGFR1 (Homo sapiens, UniProt P11362). In words: SelectScreen Z'LYTE kinase profiling. Type of data set: biochemical. Conditions: ATP at apparent KM.
For a further data set, the target named is AMPK A2/B1/G1 (Homo sapiens, UniProt P54646). In words: SelectScreen Z'LYTE kinase profiling. Type of data set: biochemical. Conditions: ATP at apparent KM.
Chain of AMPK A2/B1/G1 (P54646 whole entry): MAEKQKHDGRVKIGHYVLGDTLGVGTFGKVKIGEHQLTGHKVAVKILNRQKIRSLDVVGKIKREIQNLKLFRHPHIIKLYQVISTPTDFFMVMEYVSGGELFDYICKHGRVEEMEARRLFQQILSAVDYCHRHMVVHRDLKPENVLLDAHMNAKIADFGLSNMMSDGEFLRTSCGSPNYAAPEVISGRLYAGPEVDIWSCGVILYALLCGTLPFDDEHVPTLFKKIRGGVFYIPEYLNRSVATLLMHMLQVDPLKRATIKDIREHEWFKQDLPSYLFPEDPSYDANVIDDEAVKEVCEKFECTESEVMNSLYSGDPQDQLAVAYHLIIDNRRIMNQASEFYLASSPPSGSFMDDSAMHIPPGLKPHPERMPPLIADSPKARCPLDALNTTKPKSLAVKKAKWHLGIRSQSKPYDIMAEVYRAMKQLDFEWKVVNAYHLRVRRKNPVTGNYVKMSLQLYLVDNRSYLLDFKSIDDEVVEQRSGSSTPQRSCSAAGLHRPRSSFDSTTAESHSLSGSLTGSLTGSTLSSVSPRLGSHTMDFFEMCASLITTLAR
Chain of AMPK A2/B1/G1 (Q9Y478 whole entry partner): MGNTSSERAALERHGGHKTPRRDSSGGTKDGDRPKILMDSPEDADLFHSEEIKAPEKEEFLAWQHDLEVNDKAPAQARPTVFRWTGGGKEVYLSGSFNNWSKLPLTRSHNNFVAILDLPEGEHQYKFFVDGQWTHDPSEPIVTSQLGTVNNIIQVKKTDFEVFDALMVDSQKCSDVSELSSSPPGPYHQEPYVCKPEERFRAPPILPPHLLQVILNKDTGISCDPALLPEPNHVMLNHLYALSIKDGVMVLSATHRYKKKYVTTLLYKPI
Chain of AMPK A2/B1/G1 (P54619 whole entry partner): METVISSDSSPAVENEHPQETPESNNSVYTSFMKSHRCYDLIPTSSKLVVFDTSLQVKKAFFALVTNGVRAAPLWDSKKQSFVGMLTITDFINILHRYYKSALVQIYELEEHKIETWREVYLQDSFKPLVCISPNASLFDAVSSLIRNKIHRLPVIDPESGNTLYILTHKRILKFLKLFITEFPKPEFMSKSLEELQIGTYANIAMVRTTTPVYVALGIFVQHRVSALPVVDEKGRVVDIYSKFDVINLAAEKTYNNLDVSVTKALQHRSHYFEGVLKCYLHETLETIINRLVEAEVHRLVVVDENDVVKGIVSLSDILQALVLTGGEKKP
The target in another data set is PRKACA (PKA) (Homo sapiens, UniProt P17612). In words: SelectScreen Z'LYTE kinase profiling. Conditions: ATP at apparent KM. It counts as biochemical.
Another data set has as its target T1, BMX (Homo sapiens, UniProt P51813).
T1 sequence (P51813 1-675): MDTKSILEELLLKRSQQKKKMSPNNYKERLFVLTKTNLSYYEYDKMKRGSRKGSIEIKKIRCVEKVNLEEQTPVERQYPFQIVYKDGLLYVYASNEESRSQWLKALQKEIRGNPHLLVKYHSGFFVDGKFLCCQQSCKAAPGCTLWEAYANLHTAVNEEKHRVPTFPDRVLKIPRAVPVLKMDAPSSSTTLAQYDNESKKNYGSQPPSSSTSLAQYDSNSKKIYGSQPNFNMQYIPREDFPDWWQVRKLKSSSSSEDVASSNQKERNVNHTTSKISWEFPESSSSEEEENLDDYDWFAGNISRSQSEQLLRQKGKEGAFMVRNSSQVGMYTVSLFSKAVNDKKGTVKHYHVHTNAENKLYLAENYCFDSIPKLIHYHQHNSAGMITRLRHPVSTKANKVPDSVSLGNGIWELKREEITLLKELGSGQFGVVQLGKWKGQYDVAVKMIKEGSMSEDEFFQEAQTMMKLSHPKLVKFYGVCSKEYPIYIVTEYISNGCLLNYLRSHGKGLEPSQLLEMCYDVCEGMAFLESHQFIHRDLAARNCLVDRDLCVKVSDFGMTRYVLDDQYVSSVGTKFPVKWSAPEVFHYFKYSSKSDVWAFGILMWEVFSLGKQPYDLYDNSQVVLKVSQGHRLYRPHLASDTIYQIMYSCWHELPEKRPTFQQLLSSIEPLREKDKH
In words: SelectScreen Z'LYTE kinase profiling. The following applies: ATP at apparent KM. Type of data set: biochemical.

The target of a further data set is T2, PRKG1 (Homo sapiens, UniProt Q13976).
T2 sequence (Q13976 1-671): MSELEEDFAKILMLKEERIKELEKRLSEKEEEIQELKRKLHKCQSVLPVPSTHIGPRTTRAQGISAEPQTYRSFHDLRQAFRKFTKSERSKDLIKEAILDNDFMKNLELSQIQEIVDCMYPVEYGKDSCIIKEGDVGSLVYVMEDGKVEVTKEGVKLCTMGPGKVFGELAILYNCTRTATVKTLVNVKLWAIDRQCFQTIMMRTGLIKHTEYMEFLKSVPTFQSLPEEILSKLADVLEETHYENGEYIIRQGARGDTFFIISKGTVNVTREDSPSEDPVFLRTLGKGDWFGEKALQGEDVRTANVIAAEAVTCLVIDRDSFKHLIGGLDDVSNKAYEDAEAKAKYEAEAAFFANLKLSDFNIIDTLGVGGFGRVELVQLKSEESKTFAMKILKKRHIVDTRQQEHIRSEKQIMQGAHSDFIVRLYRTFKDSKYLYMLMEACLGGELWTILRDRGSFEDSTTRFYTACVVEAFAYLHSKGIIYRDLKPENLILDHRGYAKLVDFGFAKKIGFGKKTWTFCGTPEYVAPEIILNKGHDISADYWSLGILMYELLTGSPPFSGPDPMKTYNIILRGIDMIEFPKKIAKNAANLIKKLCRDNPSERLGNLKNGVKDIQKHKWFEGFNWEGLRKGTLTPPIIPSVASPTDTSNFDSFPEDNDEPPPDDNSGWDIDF
In words: SelectScreen Z'LYTE kinase profiling. Conditions: ATP at apparent KM. Type of data set: biochemical.

The target of data set [2] is MAPK14 (p38 alpha) Direct (Homo sapiens, UniProt Q16539). In words: SelectScreen Z'LYTE kinase profiling. Type of data set: biochemical. Conditions: ATP at apparent KM.
Chain of MAPK14 (p38 alpha) Direct (Q16539 whole entry): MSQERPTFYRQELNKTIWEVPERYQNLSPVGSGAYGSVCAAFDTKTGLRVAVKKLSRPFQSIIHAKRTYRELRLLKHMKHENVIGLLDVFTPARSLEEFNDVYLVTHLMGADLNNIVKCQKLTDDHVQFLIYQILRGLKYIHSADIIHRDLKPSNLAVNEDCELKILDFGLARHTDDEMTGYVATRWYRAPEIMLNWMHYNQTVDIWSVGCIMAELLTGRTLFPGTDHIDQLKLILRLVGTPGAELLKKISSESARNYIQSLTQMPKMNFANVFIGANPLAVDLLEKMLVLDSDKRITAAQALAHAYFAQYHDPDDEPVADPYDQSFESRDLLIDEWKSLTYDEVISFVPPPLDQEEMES
Description: (§1) protein kinases at a compound concentration of 1 µM. Measurements were performed in duplicates
(§2) and at the particular apparent ATP KM of each individual kinase employing the activity based Z’LYTE®
(§3) kinase assay of the SelectScreen® Kinase Profiling Services (ThermoFisher Scientific).
(§4) kinases at a compound concentration of 1 µM. Measurements were performed in duplicates and at
(§5) the particular apparent ATP KM of each individual kinase employing the activity based Z’LYTE® kinase
(§6) assay of the SelectScreen® Kinase Profiling Services (ThermoFisher Scientific).
Another data set addresses T3, PRKG2 (PKG2) (Homo sapiens, UniProt Q13237).
T3 sequence (Q13237 1-762): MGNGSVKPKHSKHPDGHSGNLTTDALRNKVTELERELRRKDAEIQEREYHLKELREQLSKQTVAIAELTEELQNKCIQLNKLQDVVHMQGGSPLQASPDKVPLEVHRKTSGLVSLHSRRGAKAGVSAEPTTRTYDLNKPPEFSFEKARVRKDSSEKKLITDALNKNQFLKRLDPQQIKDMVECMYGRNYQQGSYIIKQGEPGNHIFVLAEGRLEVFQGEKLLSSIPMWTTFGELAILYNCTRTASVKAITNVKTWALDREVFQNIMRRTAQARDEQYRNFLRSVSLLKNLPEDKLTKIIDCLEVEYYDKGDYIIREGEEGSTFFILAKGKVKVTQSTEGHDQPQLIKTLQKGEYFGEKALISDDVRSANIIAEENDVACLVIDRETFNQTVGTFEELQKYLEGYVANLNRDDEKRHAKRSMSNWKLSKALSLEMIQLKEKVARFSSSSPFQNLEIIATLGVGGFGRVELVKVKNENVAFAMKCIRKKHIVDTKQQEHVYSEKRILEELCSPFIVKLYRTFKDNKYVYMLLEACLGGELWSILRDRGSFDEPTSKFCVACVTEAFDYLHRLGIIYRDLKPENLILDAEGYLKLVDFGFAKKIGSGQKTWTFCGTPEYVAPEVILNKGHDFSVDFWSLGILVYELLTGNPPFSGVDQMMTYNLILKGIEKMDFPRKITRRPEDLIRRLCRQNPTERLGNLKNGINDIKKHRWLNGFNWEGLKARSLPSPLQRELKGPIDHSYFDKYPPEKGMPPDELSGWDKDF
In words: SelectScreen Z'LYTE kinase profiling. Conditions: ATP at apparent KM. Type of data set: biochemical.

In the next data set the target is T4, SGK2 (Homo sapiens, UniProt Q9HBY8).
T4 sequence (Q9HBY8 1-367): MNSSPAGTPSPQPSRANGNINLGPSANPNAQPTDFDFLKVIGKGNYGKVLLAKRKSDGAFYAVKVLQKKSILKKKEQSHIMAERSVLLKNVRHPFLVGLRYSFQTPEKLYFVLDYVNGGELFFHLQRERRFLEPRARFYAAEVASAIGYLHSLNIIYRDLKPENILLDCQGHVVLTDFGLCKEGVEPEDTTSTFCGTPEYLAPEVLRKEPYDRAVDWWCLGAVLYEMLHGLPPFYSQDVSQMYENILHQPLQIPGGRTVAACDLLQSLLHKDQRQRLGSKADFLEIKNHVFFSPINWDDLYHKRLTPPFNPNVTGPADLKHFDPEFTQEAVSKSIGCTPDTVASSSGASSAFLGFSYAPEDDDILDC
In words: SelectScreen Z'LYTE kinase profiling. Type of data set: biochemical. The following applies: ATP at apparent KM.

Another data set addresses AURKB (Aurora B) (Homo sapiens, UniProt Q96GD4). In words: SelectScreen Z'LYTE kinase profiling. Type of data set: biochemical. The following applies: ATP at apparent KM.

SMILES strings stand for the structures.

The source of these data is paper PMC6430017, “Structural and chemical insights into the covalent-allosteric inhibition of the protein kinase Akt” (Chemical Science, 2019).

The term inhibition denotes the relative decrease from the control value, in per cent. As usually defined, the half-life is the time in which the quantity being followed falls by half. A lower half-life goes with rapid decline. For orientation: microsomal CLint means the capacity of the preparation to metabolise the compound, expressed as a volume cleared per time. Low readings indicate slow turnover, high ones rapid turnover.

Chain of PRKCB1 (PKC beta I) (P05771 whole entry): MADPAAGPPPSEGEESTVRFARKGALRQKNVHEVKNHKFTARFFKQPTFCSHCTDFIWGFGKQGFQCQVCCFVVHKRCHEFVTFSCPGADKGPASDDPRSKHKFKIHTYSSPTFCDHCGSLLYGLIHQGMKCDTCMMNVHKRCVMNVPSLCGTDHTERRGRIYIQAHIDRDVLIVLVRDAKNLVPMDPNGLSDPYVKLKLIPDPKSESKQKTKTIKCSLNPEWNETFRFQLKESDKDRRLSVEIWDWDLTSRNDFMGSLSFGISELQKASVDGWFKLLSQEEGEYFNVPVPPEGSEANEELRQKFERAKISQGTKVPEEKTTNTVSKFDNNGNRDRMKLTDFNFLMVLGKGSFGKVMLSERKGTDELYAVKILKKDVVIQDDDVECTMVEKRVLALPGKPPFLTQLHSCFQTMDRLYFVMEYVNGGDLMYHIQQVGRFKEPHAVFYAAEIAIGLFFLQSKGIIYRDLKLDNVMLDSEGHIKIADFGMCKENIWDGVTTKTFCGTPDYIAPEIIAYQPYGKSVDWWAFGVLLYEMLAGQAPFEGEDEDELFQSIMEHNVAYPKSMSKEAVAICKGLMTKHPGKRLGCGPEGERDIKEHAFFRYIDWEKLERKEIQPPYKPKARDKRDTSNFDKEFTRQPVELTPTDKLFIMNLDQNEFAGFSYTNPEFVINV
Chain of AURKB (Aurora B) (Q96GD4 whole entry): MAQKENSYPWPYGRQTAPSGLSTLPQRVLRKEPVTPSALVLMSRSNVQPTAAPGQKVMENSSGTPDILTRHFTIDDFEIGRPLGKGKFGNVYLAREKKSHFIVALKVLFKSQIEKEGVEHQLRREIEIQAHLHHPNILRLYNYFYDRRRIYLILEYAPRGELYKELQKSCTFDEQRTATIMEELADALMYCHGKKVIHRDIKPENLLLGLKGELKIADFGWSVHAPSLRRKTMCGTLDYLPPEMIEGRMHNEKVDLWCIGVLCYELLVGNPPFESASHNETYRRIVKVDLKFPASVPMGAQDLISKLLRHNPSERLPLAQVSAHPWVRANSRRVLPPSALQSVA
Chain of FGFR1 (P11362 22-822): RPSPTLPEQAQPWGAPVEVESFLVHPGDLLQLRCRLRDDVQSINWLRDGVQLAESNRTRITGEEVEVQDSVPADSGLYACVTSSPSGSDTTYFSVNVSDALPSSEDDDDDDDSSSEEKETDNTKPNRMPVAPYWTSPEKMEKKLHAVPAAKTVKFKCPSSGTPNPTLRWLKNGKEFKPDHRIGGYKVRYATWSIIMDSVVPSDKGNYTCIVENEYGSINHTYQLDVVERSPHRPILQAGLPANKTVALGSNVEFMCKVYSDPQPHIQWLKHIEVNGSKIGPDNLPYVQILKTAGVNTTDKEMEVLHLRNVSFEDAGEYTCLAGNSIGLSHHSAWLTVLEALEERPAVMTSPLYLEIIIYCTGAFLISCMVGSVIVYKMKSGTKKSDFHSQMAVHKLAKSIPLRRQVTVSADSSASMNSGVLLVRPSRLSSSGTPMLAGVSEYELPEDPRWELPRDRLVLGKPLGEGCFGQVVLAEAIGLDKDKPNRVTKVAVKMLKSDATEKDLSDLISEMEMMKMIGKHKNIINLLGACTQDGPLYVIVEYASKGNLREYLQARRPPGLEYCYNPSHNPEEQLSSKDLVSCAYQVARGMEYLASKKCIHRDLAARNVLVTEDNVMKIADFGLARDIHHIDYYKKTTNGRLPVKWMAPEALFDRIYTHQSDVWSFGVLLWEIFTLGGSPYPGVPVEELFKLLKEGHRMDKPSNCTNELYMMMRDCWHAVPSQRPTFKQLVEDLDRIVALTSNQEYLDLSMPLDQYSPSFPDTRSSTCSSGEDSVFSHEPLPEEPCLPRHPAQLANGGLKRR
Description for AMPK A2/B1/G1: as §1, §2, §3, §4, §5, §6
Description for AURKB (Aurora B): as §1, §2, §3, §4, §5, §6
Description for BMX: as §1, §2, §3, §4, §5, §6
Description for FGFR1: as §1, §2, §3, §4, §5, §6
Description for PRKACA (PKA): as §1, §2, §3, §4, §5, §6
Description for PRKCB1 (PKC beta I): as §1, §2, §3, §4, §5, §6
Description for PRKG2 (PKG2): as §1, §2, §3, §4, §5, §6
Description for SGK2: as §1, §2, §3, §4, §5, §6

Take `C=CC(=O)Nc1ccc2c(c1)n(C1CCN(Cc3ccc(-c4nc5cc[nH]c(=O)c5cc4-c4ccccc4)cc3)CC1)c(=O)n2C` [24b]: the inhibition at 1 µM at PRKCB1 (PKC beta I) came to 7%; at FGFR1, 7%; on AMPK A2/B1/G1, 20%; at PRKACA (PKA), 2%; on BMX, 28%; on PRKG1 it was 6%. For the same molecule, the inhibition at 1 µM in data set [2] is 2%; on PRKG2 (PKG2), -4%; at SGK2, -1%; on AURKB (Aurora B), 0%. The molecule also returned a half-life at 1 h, 3 µM in data set [1] of 25 min. Moreover, the microsomal CLint at 3 µM in [1] was 19 µL/min/mg.

In the case of `C=CC(=O)Nc1cccc(C(=O)NC2CCN(Cc3ccc(-c4nc5cc[nH]c(=O)c5cc4-c4ccccc4)cc3)CC2)c1` [30b], the inhibition at 1 µM on PRKCB1 (PKC beta I) was determined as 6%; on FGFR1, 10%; at AMPK A2/B1/G1 it was 40%; on PRKACA (PKA), 10%; at BMX it was 44%; at PRKG1 it was 10%. The inhibition at 1 µM in data set [2] was 6%; on PRKG2 (PKG2) it was 5%; at SGK2 it was 3%; on AURKB (Aurora B), 2%. Also, in data set [1], the half-life at 1 h, 3 µM came out at 58 min. The molecule further returned a microsomal CLint at 3 µM in data set [1] of 8 µL/min/mg.

For `C=CC(=O)Nc1cc(NC(=O)NC2CCN(Cc3ccc(-c4nc5cc[nH]c(=O)c5cc4-c4ccccc4)cc3)CC2)ccc1Cl` [compound 27], the inhibition at 1 µM is 6% on PRKCB1 (PKC beta I); 24% on FGFR1; 77% on AMPK A2/B1/G1; -4% on PRKACA (PKA); 3% on BMX; 11% at PRKG1. Also, the inhibition at 1 µM in [2] is 10%; on PRKG2 (PKG2), -4%; on SGK2, 4%; on AURKB (Aurora B), 2%. The same molecule registered a half-life at 1 h, 3 µM in data set [1] of 19 min. The microsomal CLint at 3 µM in data set [1] is 24 µL/min/mg.
